{"source": "patent US8617567B2", "about": "“Fungus polyose composition with immunity enhancing effect and application thereof” (priority 2009, dated 2013)", "tested_on": "S180 cancer bearing mice", "conditions": "S180 NIH mice, 100 mg/kg intraperitoneal, 2 times per week, 11 days", "description": "85 healthy NIH mice, unisexual, were selected. […] The other 55 mice were used for solid tumor test.\nAt the beginning of the experiment, 20 mice with ascites were selected and sacrificed by pulling the cervical vertebrae on a sterilized bench, then the abdomens were sterilized with iodine tinctur, 75% alcohol q-tips in turn. The ascites were collected with 3 ml asepsis disposable syringe and put in asepsis dry conical flask and stored on the ice. […] It should be noted that the ascites collected were a milk-yellow or milk-white fluid, and the ascites with a larger quantity of RBC should be discarded. After the ascites were diluted 100 times, the cell density was measured to about 2×10^7/ml by the method of Trypan Blue count. The ascites were diluted with saline. The diluted ascites were subcutaneously injected, at a dosage of 0.2 ml, into the right armpit of each mouse.\nAfter all qualified 55 mice were injected, they were randomly divided into 5 groups: the blank control group, the compound fungus polyose low-, medium-, and high-dosage groups, and the positive cyclophosphamide control group, respectively. 11 mice were in each group. […] After 11 days of administration, all mice were sacrificed and their body weights, tumor weights, thymic weights, and spleen weights were measured. After the end of the experiment, statistical treatment of data was carried out to compare the difference among the groups. Thymus (spleen) index=Thymus (spleen) weight/Body weight×10 g Body Weight Changes=Body weight after administration−Body weight before administration Inhibition ratio %=(Tumor weight in blank group−Tumor weight in treatment group)/Tumor weight in blank group×100% 4.2 Mice Immune Function Test 4.2.1 Mice Carbon Clearance Test", "data": [{"molecule": "O=P1(N(CCCl)CCCl)NCCCO1", "note": "(centres unmarked) [Cyclophosphamide]", "values": [{"measurement": "Condition of thymus and spleen", "value": "obvious atrophy"}, {"measurement": "Spleen index", "value": "0.0322 ± 0.0190", "unit": "g/10 g"}, {"measurement": "Thymus index", "value": "0.0117 ± 0.0041", "unit": "g/10 g"}, {"measurement": "Tumor weight", "value": "0.0502 ± 0.0253", "unit": "g"}, {"measurement": "Anti-tumor ratio", "setting": "vs blank control", "value": 95.9, "unit": "%"}]}]}
